Non-standard residues stand in square brackets, D forms with d. No end group written: not given here. pGlu = O=C1CC[C@@H](C(=O)O)N1
Test system: human corneal epithelial cells (HCE-T)
Assay: Adhesion of human corneal epithelial cell to extracellular matrix (collagen type IV coated plate)
Format: cell-based
Conditions: polypeptide 100 μg/mL, 37° C. 25 min
Method: An extracellular matrix solution (10 μg/mL, collagen type IV: Becton, Dickinson and Company, catalog No. 354245) was added to a 96 well plate (Iwaki Glass Company, Limited, catalog No. 3860-096). The solution was incubated at 37° C. for 1 hr to coat the plate with the extracellular matrix. After the redundant extracellular matrix solution was removed, 0.1% BSA solution (Sigma-Aldrich Co., catalog No. A3803) was added to block the region not coated with the extracellular matrix. Successively, the BSA solution was removed and the plate was washed twice with PBS, and polypeptides 1-4 (concentration 100 μg/mL) synthesized in Example 1 (Pyr Lac50-83) and Comparative Examples 1-3 (Lac50-83, Pyr Lac50-94, Lac50-94), and negative control polypeptide (Lac24-56, Lac50-65) were added by 50 μl, per well. […]
Thereafter, the cells were fixed with 10% neutral buffered formaldehyde liquid (NACALAI TESQUE, INC., catalog No. 37152-51), and stained with 1% crystal violet staining solution (Sigma-Aldrich Co., catalog No. C3886). The image of the stained cells was uploaded using an inverted system microscope (Olympus Corporation, IX71), and the area of the adhered cells was measured using Image-Pro Plus Ver. […]

Row | Substance | cell adhesion promoting effect (cell adhesion rate against that without addition of polypeptide as 100%)
1 | Pyr Gly Thr Ala Lys Val Thr Ser Ser Arg Gln Glu Leu Asn Pro Leu Lys Ser Ile Val Glu Lys Ser Ile Leu Leu Thr Glu Gln Ala Leu Ala Lys Ala ([pGlu]GTAKVTSSRQELNPLKSIVEKSILLTEQALAKA; listed as Homo sapiens) [polypeptide 1, pyro-modified partial peptide of lacritin] | confirmed to have an activity to promote cell adhesion
2 | Pyr Gly Thr Ala Lys Val Thr Ser Ser Arg Gln Glu Leu Asn Pro Leu Lys Ser Ile Val Glu Lys Ser Ile Leu Leu Thr Glu Gln Ala Leu Ala Lys Ala Gly Lys Gly Met His Gly Gly Val Pro Gly Gly ([pGlu]GTAKVTSSRQELNPLKSIVEKSILLTEQALAKAGKGMHGGVPGG; listed as Homo sapiens) [polypeptide 3] | lowered activity as compared to that of polypeptide before pyro-modification

Source: patent US8518412B2, “Partial peptide of lacritin” (Senju Pharmaceutical Co, Ltd., priority 2009, dated 2013)
